Experimental data taken from PubChem BioAssay AID789 (SRMLSC, 2007).
The source made the active and inactive calls. No rule for the calls is given here.

Columns and labels:
[1] = system: S. cerevisiae apl2Δ mutant growth inhibition; test: growth inhibition of apl2Δ yeast, dose response, selectivity assay for post-Golgi transport modulator project, S. cerevisiae, secondary screen, background strain comparison (AID 789)
[2] = as above; details: S. cerevisiae background (wild-type parent) strain growth inhibition

Row | Compound | IC50 [1] | IC50 [2] [µM]
1 | CCC(C)(C)n1nnnc1C(c1cc2cc3c(cc2[nH]c1=O)OCO3)N1CCN(C)CC1 (configuration not stated) | > 10 µM (inactive) | > 10
2 | Cc1ccc(SC(=O)COc2ccc(C)c(C)c2)cc1 | > 10 µM (inactive) | > 10
3 | COc1cccc(NC(=O)c2ccc(CN3CCN(c4ccccc4)CC3)cc2)c1 | > 10 µM (inactive) | > 10
4 | OC(Cn1ccnc1)c1ccc(Cl)cc1Cl (configuration not stated) | > 10 µM (inactive) | > 10
5 | CCCOc1ccccc1N/C(=N/c1nc(C)cc(C)n1)NC(=O)COc1ccc(OC)cc1 | > 10 µM (inactive) | > 10
6 | O=C(c1ccco1)N1CCN(c2ncnc3c2[nH]c2ccccc23)CC1 | > 10 µM (inactive) | > 10
7 | CCc1cc2c(=O)c(Oc3ccccc3F)c(C)oc2c(CN(C)C)c1O | > 10 µM (inactive) | > 10
8 | O=[N+]([O-])c1cc(C(F)(F)F)ccc1N/N=C/c1cc2ccccc2nc1Cl | > 10 µM (inactive) | > 10
9 | COc1ccc(C(=O)c2c(C(F)(F)F)oc3c2C(=O)c2ccccc2C3=O)cc1 | > 10 µM (inactive) | 2.32
10 | COc1cccc(-c2cc(C(=O)N3CCN(C(c4ccccc4)c4ccccc4)CC3)no2)c1 | > 10 µM (inactive) | > 10
11 | CCCn1c(SCc2cc(=O)oc3ccc4ccccc4c23)n[nH]c1=O | > 10 µM (inactive) | > 10
12 | c1ccc(Nc2cc(-c3ccccc3)nc3ncnn23)cc1 | > 10 µM (inactive) | > 10
13 | CCOC(=O)Cc1c(C)c2ccc(N(CC)CC)cc2oc1=O | > 10 µM (inactive) | > 10
14 | CCOC(=O)c1c(-n2c(C)cc(C=C3C(=O)NC(=S)NC3=O)c2C)sc2c1CCCC2 | > 10 µM (inactive) | 11.5
15 | O=C(NC1CCN(Cc2ccccc2)CC1)C1COc2ccccc2O1 (configuration not stated) | > 10 µM (inactive) | > 10
16 | CCOC(=O)c1c(CN2CCCCC2C)oc2ccc(OC)cc12 (configuration not stated) | > 10 µM (inactive) | > 10
17 | CC(C)Cc1[nH]c(=O)c(C#N)c2c1CCC2 | > 10 µM (inactive) | > 10
18 | O=C(COc1ccc(Cl)cc1Cl)N1CCN(C/C=C/c2ccccc2)CC1 | 4.89 µM | 7.14
19 | Cc1ccc(CSc2nc3ccccc3cc2C=O)cc1 | 7.24 µM (inactive) | 2.1
20 | CCCCSCCCNC(=O)Nc1cccc(OC)c1 | > 10 µM (inactive) | > 10
21 | COc1ccccc1N1CCN(Cc2ccccc2F)CC1 | > 10 µM (inactive) | > 10

Row | Compound | IC50 [1] | IC50 [2] [µM]
22 | CC1=CC(C)(C)Nc2ccc(OC(=O)CN3C(=O)c4cccc5cccc(c45)C3=O)cc21 | > 10 µM (inactive) | > 10
23 | O=C(NCC(c1cccnc1)N1CCN(c2ccccc2)CC1)C1CCCCC1 (configuration not stated) | > 10 µM (inactive) | > 10
24 | COc1ccc(C(=O)Nc2ccc(Cl)cc2C(=O)N2CCCC(C)C2)cc1 (configuration not stated) | 22.4 µM | > 10
25 | C=CCc1ccccc1OCC(O)CN1CCN(Cc2ccc3c(c2)OCO3)CC1 (configuration not stated) | 19.6 µM | > 10
26 | CCN(CC)c1nc2cc(OC)ccc2cc1C#N | > 10 µM (inactive) | > 10
27 | Cn1nnc2cc(C(=O)Nc3cccnc3)ccc21 | > 10 µM (inactive) | > 10
28 | O=C(c1ccc(Cl)cc1Cl)N1CCC(c2nc3c(nnn3Cc3ccco3)c(=O)[nH]2)CC1 | > 10 µM (inactive) | > 10
29 | Cc1ccn2cc(-c3nonc3C)cc2c1 | > 10 µM (inactive) | > 10
30 | N#CC1=C(N)C(C#N)(C#N)C(c2cccnc2)C2CC(c3ccccc3)CC=C12 (configuration not stated) | 4.06 µM (inactive) | 2.97
31 | O=C(Nc1nnc(-c2ccc3c(c2)CCCC3)o1)c1ccccc1Cl | > 10 µM (inactive) | 10.7
32 | CN1C(=O)/C(=C/c2cccn2-c2ccc3ccccc3c2)C(=O)NC1=S | 11.3 µM (inactive) | 6.58
33 | Cc1c(C)c2cc(Cl)c(O)c(CN3CCN(C)CC3)c2oc1=O | > 10 µM (inactive) | > 10
34 | O=C(OCn1ncc(Cl)c(Cl)c1=O)c1ccccc1Cl | > 10 µM (inactive) | 16.6
35 | CCc1cc(=O)oc2cc(C)c(CN3CCCC(C)C3)c(O)c12 (configuration not stated) | > 10 µM (inactive) | > 10
36 | CCOC(=O)c1ccc(NC(=O)c2ccc(CN3CCOCC3)cc2)cc1 | > 10 µM (inactive) | > 10
37 | O=C(OCn1nnc2ccccc2c1=O)c1cn(-c2ccccc2)nc1-c1cccnc1 | > 10 µM (inactive) | > 10
38 | O=S(=O)(c1ccc(Cl)cc1)N1CCN(C2CCN(Cc3ccccc3)CC2)CC1 | > 10 µM (inactive) | > 10
39 | O=C(O)c1cc(-c2ccc(/C=N/Nc3ccc(Cl)cc3)o2)ccc1Cl | 15.5 µM | 16.4
40 | N#CC1=C(N)NC(SCc2ccc(F)cc2)=C(C#N)C12CCCCC2 | 7.78 µM | 16.3
41 | Cc1cc(=O)[nH]c(SCC(=O)c2ccc(C)c(C)c2)n1 | 6.63 µM (inactive) | 2.31
42 | Cc1cc(C)n2nc(C(=O)NCc3ccccc3)cc2n1 | > 10 µM (inactive) | > 10

Row | Compound | IC50 [1] | IC50 [2] [µM]
43 | O=C(C1CCN(S(=O)(=O)c2cccs2)CC1)N1CCCCCC1 | > 10 µM (inactive) | > 10
44 | COc1ccc(-c2cc(N)n(S(=O)(=O)c3c(F)c(F)c(F)c(F)c3F)n2)cc1OC | 9.68 µM (inactive) | 1.08
45 | Cc1nnc(-c2cccc(Br)c2)c2cn(-c3ccccc3)nc12 | > 10 µM (inactive) | > 10
46 | Cc1cccc(CS(=O)(=O)Cc2ccc(C(=O)NCCCN3CCCC3)o2)c1 | > 10 µM (inactive) | > 10
47 | COc1cc(CN2CCN(c3ccc(C)cc3)CC2)cc([N+](=O)[O-])c1O | > 10 µM (inactive) | > 10
48 | Cc1nnc(-c2cccc(Br)c2)c2cn(-c3ccccc3Cl)nc12 | > 10 µM (inactive) | 25.9
49 | Cc1cc(C)nc(NC(=O)CSc2nn(C)c(=S)s2)n1 | > 10 µM (inactive) | > 10
50 | CC1CN(CC(O)COc2ccc(C(C)C)cc2)CC(C)O1 (configuration not stated) | > 10 µM (inactive) | > 10
51 | COc1ccc(N2CCN(C(=O)CCNS(=O)(=O)c3ccc(Br)s3)CC2)cc1 | > 10 µM (inactive) | > 10
52 | O=C(NCc1ccc2c(c1)OCO2)c1ccc(-n2cnnn2)cc1 | > 10 µM (inactive) | > 10
53 | Cc1cc(OCC(F)(F)C(F)(F)C(F)(F)C(F)(F)C(F)(F)C(F)F)nc(N)n1 | > 10 µM (inactive) | > 10
54 | C=CCc1ccc(OCC(O)CN2CCC(Cc3ccccc3)CC2)c(OC)c1 (configuration not stated) | 12.5 µM | 19.1
55 | O=[N+]([O-])c1ccc(N/N=C/c2c[nH]c3ccccc23)c(S(=O)(=O)Nc2ccc(Cl)cc2)c1 | 7.17 µM (inactive) | 2.5
56 | c1ccc(COc2ccc(CN3CCN(c4ccccn4)CC3)cc2)cc1 | > 10 µM (inactive) | > 10
57 | CCCCCOc1ccc(Cl)cc1CN1CCOCC1 | > 10 µM (inactive) | > 10
58 | CCN(CC)c1ccc(-c2nc3cnccc3n2C)cc1 | > 10 µM (inactive) | > 10
59 | CCC(=O)c1ccc(N2CCN(C(=O)c3ccc(Br)cc3)CC2)c(F)c1 | > 10 µM (inactive) | > 10
60 | N#CC1=C2SCC(O)(c3ccccc3)N2C(=O)CC1c1ccccc1 (configuration not stated) | > 10 µM (inactive) | > 10
61 | O=C(Nc1nc(-c2ccccn2)cs1)c1ncc(Cl)c(Cl)c1Cl | 19.3 µM (inactive) | 13.3
